Structures can show the parent of a compound that is named as a salt.
Key:
[1] = test system: Reperfusion-induced arrhythmia; experiment: Reperfusion-induced arrhythmia (ventricular tachycardia and fibrillation, survival) in anaesthetized rats; assay type: in vivo, rat; details: 1 mg/kg i.v., 5 minutes before compressing the left-sided descending coronary artery; first 3 minutes of reperfusion
Description: The Reperfusion-induced arrhythmia [ventricular tachycardia (VI) and ventricular fibrillation (VF)] was studied on anaesthetized rats. Myocardial ischemia was elicited by compressing the left-sided descending coronary artery for 5 minutes and after the ceasing thereof, by a 10-minute reperfusion of the heart. ECG was continuously monitored, and the change of the mean duration of VT and VF under effect of the test compounds, as well as the survival, were measured in the first 3 minutes of reperfusion. The test compounds were administered in an intravenous (i.v.) dose of 1 mg/kg by 5 minutes before compressing the left-sided descending coronary artery.

[2] = test system: thoracal aorta isolated from rabbit; experiment: Vasorelaxant effect in vitro on isolated thoracal aorta; details: Oryctolagus cuniculus
Source text: The vasorelaxant effect of the compounds was investigated in vitro on the thoracal aorta isolated from rabbit [Am. J. Physiol. 257, 1327-1333 (1989)].

sciatic and tibial nerve = experiment: Motor and sensory impulse conduction rate of nerves in STZ-induced diabetic rats (diabetic angiopathy complications); assay type: in vivo, male Cr:Wistar rats; details: for MCR correction (%): motor conduction rate; for SCR correction (%): sensory conduction rate
Description: Furthermore, the effect of the compounds of the invention in the treatment of complications associated with the diabetic angiopathy was studied. The in vivo action was measured on rats, by the change of rate of the impulse conduction in an STZ-induced diabetic state as follows.
The electrophysiological measurements were carried out on anaesthetized male Cr:Wistar rats at the end of a one-month period of treatment with 20 mg/kg administered orally (p.o.). The sciatic or tibial nerve, respectively, was excited by needle electrodes stitched near the nerve on the lower extremity and the electromyographic (EMG) responses of the plantar muscle were registered. Five EMG-s each were averaged and the results were stored in a computer. The latency periods of the motor and sensory components were measured. The rates of impulse conduction were calculated from the ratio of the distance between two sites of excitation to the differences of latency.

[3] = 20 mg/kg p.o., one-month treatment

Row | EC50 [2] [µM] | SMILES | also measured
1 | 82 | CCN(CC)CCCON=C(Cl)c1cccnc1 [Example 4, O-(3-diethylaminopropyl)-3-pyridinehydroximoyl chloride hydrochloride] | 
2 | 24 | ClC(=NOCCCN1CCOCC1)c1cccnc1 [Example 5, O-(3-morpholinopropyl)-3-pyridinehydroximoyl chloride dihydrochloride] | 
3 | 13 | ClC(=NOCCN1CCCCC1)c1cccnc1 [Example 6, O-(2-piperidinoethyl)-3-pyridinehydroximoyl chloride hydrochloride] | 
4 | 15 | FC(F)(F)c1cccc(C(Cl)=NOCCCN2CCCCC2)c1 [Example 8, N-[3-(1-piperidinyl)propoxy]-3'-(trifluoromethyl)benzimidoylchloride hydrochloride] | 
5 | 76 | CN1CCN(CCCON=C(Cl)c2cccnc2)CC1 [Example 9, N-[3-(4-methylpiperazin-1-yl)-1-propoxy]-3-pyridinecarboximidoyl chloride trihydrochloride] | 
6 | 83 | CC(C)COCC(CN(Cc1ccccc1)c1ccccc1)N1CCCC1 (stereo not shown) [Ref, Bepridil, reference compound] | 
7 |  | N=C(N)NN [Reference drug, aminoguanidine, reference compound] | MCR correction (%) (sciatic and tibial nerve; 50 mg/kg of aminoguanidine): 40%; SCR correction (%) (sciatic and tibial nerve; 50 mg/kg of aminoguanidine): 45%

Row | SMILES | EC50 [2] [µM] | also measured
8 | ClC(=NOCCCN1CCCCC1)c1cccnc1 [Example 2, N-(3-piperidinopropoxy)-3-pyridinecarboximodyl chloride dihydrochloride] | 27 | survival of experimental animals [1]: 100%; MCR correction (%) (sciatic and tibial nerve; [3]): 100%; SCR correction (%) (sciatic and tibial nerve; [3]): 100%
9 | Cl.O=[N+]([O-])c1cccc(C(Cl)=NOCCCN2CCCCC2)c1 [Example 7, O-(3-piperidinopropyl)-3-nitro-benzhydroximoyl chloride hydrochloride] | 6 | survival of experimental animals [1]: 100%; MCR correction (%) (sciatic and tibial nerve; [3]): 48%; SCR correction (%) (sciatic and tibial nerve; [3]): 64%

From patent US5919796A, “Hydroximic acid derivatives, pharmaceutical compositions containing them, and processes for preparing the same” (BIOREX Kutato es Fejleszto Rt., priority 1994, dated 1999)
